The experiment has as its target T1, WIZ protein (HiBit-WIZ fusion protein) (Homo sapiens, UniProt O95785+Q96SW2).
T1 construct: expressed in transfected cells
The experiment can be described thus: Quantification of WIZ protein levels in HiBit tag fusion protein assay (WIZ HiBit assay in 293T cells). It counts as cell-based. To be noted: for Dmax at 25 µM: 100 − Amax; for Dmax at 25 µM / remaining activity at 25 µM: 293T cells; for remaining activity at 25 µM: DMSO-normalized, curve-fitted percentage of WIZ-HiBit remaining at 25 uM; for DC50: WIZ HiBit assay in 293T cells, 10-point, 5-fold dose response, highest concentration 25 μM, about 18 hours, read-out: WIZ AC50. Further details: remaining activity / Dmax: dose or concentration left out as unconfirmed. A digest of the protocol:
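HiBit-tagged WIZ (N-terminal tag, HSVTK promoter) stably expressed single-copy in 293T cells; 10-point 1:5 compound series, top 25 μM, ~18 h at 37 °C. Lytic HiBit/LgBit luminescence read; Amax = curve-fitted % WIZ-HiBit remaining at 25 μM, DMSO normalized to 100%.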
On the technique in general: The HiBiT peptide binds its large partner to form an active luciferase.

The mark [1] stands for this setting: HEK-293T, read-out: % degradation of WIZ (100 − Amax).

The structures appear in SMILES notation.

T1 sequence (O95785 whole entry, the tested form may be a part): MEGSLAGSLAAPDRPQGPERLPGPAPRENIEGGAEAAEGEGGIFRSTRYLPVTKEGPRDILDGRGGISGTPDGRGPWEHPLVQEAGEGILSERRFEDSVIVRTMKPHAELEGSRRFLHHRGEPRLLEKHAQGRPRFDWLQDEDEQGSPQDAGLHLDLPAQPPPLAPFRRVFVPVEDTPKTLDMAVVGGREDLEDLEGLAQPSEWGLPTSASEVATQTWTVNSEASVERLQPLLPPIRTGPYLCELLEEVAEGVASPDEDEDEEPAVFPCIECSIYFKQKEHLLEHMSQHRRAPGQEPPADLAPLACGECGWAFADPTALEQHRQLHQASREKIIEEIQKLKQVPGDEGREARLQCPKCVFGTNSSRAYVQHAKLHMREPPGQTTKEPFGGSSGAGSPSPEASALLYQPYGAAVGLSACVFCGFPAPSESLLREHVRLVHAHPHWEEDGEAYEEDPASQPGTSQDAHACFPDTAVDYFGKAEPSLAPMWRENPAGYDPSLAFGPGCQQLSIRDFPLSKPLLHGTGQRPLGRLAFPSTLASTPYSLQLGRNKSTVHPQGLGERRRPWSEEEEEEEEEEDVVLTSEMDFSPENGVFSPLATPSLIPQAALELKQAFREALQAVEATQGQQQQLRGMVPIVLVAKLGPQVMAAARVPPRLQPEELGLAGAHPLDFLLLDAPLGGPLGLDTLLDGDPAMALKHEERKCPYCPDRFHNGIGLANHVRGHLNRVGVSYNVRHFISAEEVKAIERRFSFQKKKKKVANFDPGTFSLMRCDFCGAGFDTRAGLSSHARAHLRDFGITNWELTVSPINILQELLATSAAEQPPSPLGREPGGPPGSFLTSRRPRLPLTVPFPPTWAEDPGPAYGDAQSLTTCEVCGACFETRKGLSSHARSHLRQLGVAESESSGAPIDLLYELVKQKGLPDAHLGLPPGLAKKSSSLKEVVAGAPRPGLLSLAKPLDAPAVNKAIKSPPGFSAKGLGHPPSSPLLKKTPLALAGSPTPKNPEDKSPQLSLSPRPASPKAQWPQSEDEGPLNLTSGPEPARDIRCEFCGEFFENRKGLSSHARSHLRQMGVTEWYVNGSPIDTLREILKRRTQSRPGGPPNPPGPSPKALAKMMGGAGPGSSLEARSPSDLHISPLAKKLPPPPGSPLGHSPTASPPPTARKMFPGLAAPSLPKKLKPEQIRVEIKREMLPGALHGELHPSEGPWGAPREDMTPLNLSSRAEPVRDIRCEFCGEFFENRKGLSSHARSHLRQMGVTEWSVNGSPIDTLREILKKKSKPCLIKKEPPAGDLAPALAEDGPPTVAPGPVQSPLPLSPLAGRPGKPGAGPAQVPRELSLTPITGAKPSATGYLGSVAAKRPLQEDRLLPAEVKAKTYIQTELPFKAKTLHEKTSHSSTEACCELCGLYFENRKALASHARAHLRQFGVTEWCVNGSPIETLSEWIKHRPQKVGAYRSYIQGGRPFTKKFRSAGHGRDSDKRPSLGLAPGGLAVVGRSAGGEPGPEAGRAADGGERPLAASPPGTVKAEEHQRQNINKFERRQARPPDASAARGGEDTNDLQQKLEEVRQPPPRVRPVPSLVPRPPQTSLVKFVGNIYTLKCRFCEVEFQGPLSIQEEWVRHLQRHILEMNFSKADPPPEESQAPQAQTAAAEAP
T1 sequence (Q96SW2 whole entry, the tested form may be a part): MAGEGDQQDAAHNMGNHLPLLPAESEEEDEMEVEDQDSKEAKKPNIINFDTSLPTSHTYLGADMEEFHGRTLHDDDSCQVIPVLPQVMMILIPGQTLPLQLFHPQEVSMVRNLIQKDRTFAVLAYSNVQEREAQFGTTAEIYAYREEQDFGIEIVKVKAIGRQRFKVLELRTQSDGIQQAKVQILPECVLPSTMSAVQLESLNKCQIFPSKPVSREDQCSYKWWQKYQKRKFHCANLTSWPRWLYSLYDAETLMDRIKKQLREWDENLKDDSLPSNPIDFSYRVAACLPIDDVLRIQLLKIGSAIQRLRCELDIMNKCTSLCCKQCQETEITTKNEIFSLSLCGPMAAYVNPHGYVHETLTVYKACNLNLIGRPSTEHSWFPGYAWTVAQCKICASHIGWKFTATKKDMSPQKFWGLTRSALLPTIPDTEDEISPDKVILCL
T1 sequence (Q16531 whole entry partner, the tested form may be a part): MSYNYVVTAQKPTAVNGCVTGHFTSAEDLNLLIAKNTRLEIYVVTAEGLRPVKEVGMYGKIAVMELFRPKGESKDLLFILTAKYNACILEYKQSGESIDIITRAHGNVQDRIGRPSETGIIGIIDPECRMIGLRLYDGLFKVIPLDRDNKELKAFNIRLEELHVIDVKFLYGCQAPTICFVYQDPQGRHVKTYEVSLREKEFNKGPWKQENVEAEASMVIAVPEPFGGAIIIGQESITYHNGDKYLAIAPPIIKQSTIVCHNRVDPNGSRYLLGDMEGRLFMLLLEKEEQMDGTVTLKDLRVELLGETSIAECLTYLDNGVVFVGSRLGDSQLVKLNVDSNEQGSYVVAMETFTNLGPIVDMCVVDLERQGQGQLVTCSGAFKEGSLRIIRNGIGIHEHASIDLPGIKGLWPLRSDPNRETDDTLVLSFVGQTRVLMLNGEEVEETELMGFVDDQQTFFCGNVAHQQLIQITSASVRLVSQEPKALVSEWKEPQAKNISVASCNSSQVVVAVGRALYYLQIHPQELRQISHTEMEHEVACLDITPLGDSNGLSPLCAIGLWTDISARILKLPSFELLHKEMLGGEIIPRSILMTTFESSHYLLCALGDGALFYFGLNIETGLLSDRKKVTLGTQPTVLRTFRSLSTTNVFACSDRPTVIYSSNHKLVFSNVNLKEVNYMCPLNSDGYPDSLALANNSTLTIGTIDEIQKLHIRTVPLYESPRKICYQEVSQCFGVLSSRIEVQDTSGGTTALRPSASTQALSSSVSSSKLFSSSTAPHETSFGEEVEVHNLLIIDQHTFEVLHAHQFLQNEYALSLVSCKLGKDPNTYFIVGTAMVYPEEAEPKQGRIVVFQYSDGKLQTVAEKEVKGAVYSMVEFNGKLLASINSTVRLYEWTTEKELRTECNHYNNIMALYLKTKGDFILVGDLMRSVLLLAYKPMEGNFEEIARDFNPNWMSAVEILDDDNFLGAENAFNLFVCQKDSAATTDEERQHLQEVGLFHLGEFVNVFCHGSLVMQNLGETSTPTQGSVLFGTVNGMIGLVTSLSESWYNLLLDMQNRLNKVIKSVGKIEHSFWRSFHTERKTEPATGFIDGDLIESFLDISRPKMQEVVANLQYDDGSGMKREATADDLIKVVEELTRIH

Turning to `C[C@H]1CN(Cc2ccn3ncc(N4CCC(=O)NC4=O)c3c2)CCN1CC1CCO1` (stereo partly drawn) [Example 324, 1-(5-(((3S)-3-methyl-4-(oxetan-2-ylmethyl)piperazin-1-yl)methyl)pyrazolo[1,5-a]pyridin-3-yl)dihydropyrimidine-2,4(1H,3H)-dione], the DC50 is 108 nM. Also, the Dmax at 25 µM under setting [1] was 72%. Besides, the remaining activity at 25 µM (HEK-293T, read-out: WIZ Amax) is 28%.

As to `C[C@H]1CN(Cc2ccn3ncc(N4CCC(=O)NC4=O)c3c2)CCN1CC1CCCCCC1` [Example 198, (S)-1-(5-((4-(cycloheptylmethyl)-3-methylpiperazin-1-yl)methyl)pyrazolo[1,5-a]pyridin-3-yl)dihydropyrimidine-2,4(1H,3H)-dione], the DC50 stood at 9 nM. Besides, the Dmax at 25 µM under setting [1] turned out to be 87%. Also, the remaining activity at 25 µM (HEK-293T, read-out: WIZ Amax) came to 13%.

As to `C[C@H]1CC(F)(Cc2ccn3ncc(N4CCC(=O)NC4=O)c3c2)CCN1C1COC1` (single isomer, unassigned) [Example 310], the DC50 is 150 nM. Moreover, the Dmax at 25 µM under setting [1] amounted to 73%. For the same compound, the remaining activity at 25 µM (HEK-293T, read-out: WIZ Amax) stood at 27%.

For `C[C@H]1CN(Cc2ccn3ncc(N4CCC(=O)NC4=O)c3c2)CCN1CCC1CCOCC1` [Example 206], the DC50 was found to be 193 nM. Further, the Dmax at 25 µM under setting [1] came out at 78%. Moreover, where the note is “HEK-293T, read-out: WIZ Amax”, the remaining activity at 25 µM was determined as 22%.

On to `CC(=O)N1CCC(Cc2ccn3ncc(N4CCC(=O)NC4=O)c3c2)CC1` [Example 104, 1-(5-((1-acetylpiperidin-4-yl)methyl)pyrazolo[1,5-a]pyridin-3-yl)dihydropyrimidine-2,4(1H,3H)-dione], for which the DC50 amounted to 7360 nM. The Dmax under setting [1] amounted to 62%. Besides, the remaining activity (HEK-293T, read-out: WIZ Amax) came out at 38%.

In the case of `O=C1CCN(c2cnn3ccc(CC4CCN(CCC5CCCC5)CC4)cc23)C(=O)N1` [Example 16, 1-(5-((1-(2-cyclopentylethyl)piperidin-4-yl)methyl)pyrazolo[1,5-a]pyridin-3-yl)dihydropyrimidine-2,4(1H,3H)-dione], the DC50 was found to be 18 nM. For the same compound, the Dmax at 25 µM under setting [1] was 84%. Besides, the remaining activity at 25 µM (HEK-293T, read-out: WIZ Amax) is 16%.

Consider `C[C@H]1CN(Cc2ccn3ncc(N4CCC(=O)NC4=O)c3c2)CCN1C1CC2(CCC2)C1` [Example 335], for which the DC50 came out at 6 nM. Also, the Dmax at 25 µM under setting [1] was 88%. Besides, the remaining activity at 25 µM (HEK-293T, read-out: WIZ Amax) was found to be 12%.

`COc1ccccc1CN1CCC(Cc2ccn3ncc(N4CCC(=O)NC4=O)c3c2)CC1` [Example 122, 1-(5-((1-(2-methoxybenzyl)piperidin-4-yl)methyl)pyrazolo[1,5-a]pyridin-3-yl)dihydropyrimidine-2,4(1H,3H)-dione]: the DC50 was found to be 2580 nM. Further, the Dmax at 25 µM under setting [1] was 55%. Besides, for the setting “HEK-293T, read-out: WIZ Amax”, the remaining activity at 25 µM worked out at 45%.

For `O=C1CCN(c2cnn3ccc(CN4CCN(CC5(C(F)(F)F)CC5)CC4)cc23)C(=O)N1` [Example 172], the DC50 is 527 nM. The Dmax at 25 µM under setting [1] came out at 42%. In addition, the remaining activity at 25 µM (HEK-293T, read-out: WIZ Amax) stood at 58%.

As to `C[C@H]1C[C@H](Cc2ccn3ncc(N4CCC(=O)NC4=O)c3c2)CCN1C[C@H]1C[C@@H](F)[C@@H](F)C1` [Example 304, 1-(5-(((2S,4R)-1-(((1r,3R,4S)-3,4-difluorocyclopentyl)methyl)-2-methylpiperidin-4-yl)methyl)pyrazolo[1,5-a]pyridin-3-yl)dihydropyrimidine-2,4(1H,3H)-dione], the DC50 was found to be 2 nM. The Dmax at 25 µM under setting [1] came out at 87%. Moreover, the remaining activity at 25 µM (HEK-293T, read-out: WIZ Amax) came out at 13%.

In the case of `C[C@H]1C[C@@H](Cc2ccn3ncc(N4CCC(=O)NC4=O)c3c2)CCN1CC1CCCCC1` (single isomer, unassigned) [Example 71], the DC50 came to 7 nM. Moreover, the Dmax at 25 µM under setting [1] was 85%. In addition, the remaining activity at 25 µM (HEK-293T, read-out: WIZ Amax) is 15%.

With `C[C@H]1CN(Cc2ccn3ncc(N4CCC(=O)NC4=O)c3c2)CCN1CC1CCCC1` [Example 212], the DC50 turned out to be 29 nM. Besides, the Dmax at 25 µM under setting [1] is 84%. Also, the remaining activity at 25 µM (HEK-293T, read-out: WIZ Amax) stood at 16%.

With `O=C1CCN(c2cnn3ccc(CN4CCN(CC5CC(F)(F)C5)CC4)cc23)C(=O)N1` [Example 174], the DC50 stood at 95 nM. Also, the Dmax at 25 µM under setting [1] came to 81%. In addition, the remaining activity at 25 µM (HEK-293T, read-out: WIZ Amax) amounted to 19%.

In the case of `C[C@H]1CN(Cc2ccn3ncc(N4CCC(=O)NC4=O)c3c2)C[C@H](C)N1CC1CCCCC1` [Example 258, 1-(5-(((3S,5S)-4-(cyclohexylmethyl)-3,5-dimethylpiperazin-1-yl)methyl)pyrazolo[1,5-a]pyridin-3-yl)dihydropyrimidine-2,4(1H,3H)-dione], the DC50 is 148 nM. Besides, under setting [1], the Dmax at 25 µM was 69%. The remaining activity at 25 µM (HEK-293T, read-out: WIZ Amax) stood at 31%.

In the case of `O=C1CCN(c2cnn3ccc(CC4C[C@H]5CC[C@@H](C4)N5CC4CCCCC4)cc23)C(=O)N1` (stereo partly drawn) [Example 66, 1-(5-(((1R,5S)-8-(cyclohexylmethyl)-8-azabicyclo[3.2.1]octan-3-yl)methyl)pyrazolo[1,5-a]pyridin-3-yl)dihydropyrimidine-2,4(1H,3H)-dione], the DC50 came out at 195 nM. Further, the Dmax at 25 µM under setting [1] is 72%. The remaining activity at 25 µM (HEK-293T, read-out: WIZ Amax) was 28%.

Take `COC(=O)N1CCC(Cc2ccn3ncc(N4CCC(=O)NC4=O)c3c2)CC1` [Example 93]: the DC50 stood at 6520 nM. The Dmax at 25 µM under setting [1] came out at 62%. Moreover, the remaining activity at 25 µM (HEK-293T, read-out: WIZ Amax) turned out to be 38%.

On to `CC(C)CN1[C@@H](C)CN(Cc2ccn3ncc(N4CCC(=O)NC4=O)c3c2)C[C@@H]1C` [Example 259, 1-(5-(((3S,5S)-4-isobutyl-3,5-dimethylpiperazin-1-yl)methyl)pyrazolo[1,5-a]pyridin-3-yl)dihydropyrimidine-2,4(1H,3H)-dione], for which the DC50 is 258 nM. Moreover, the Dmax at 25 µM under setting [1] amounted to 61%. Further, the remaining activity at 25 µM (HEK-293T, read-out: WIZ Amax) came to 39%.

On to `O=C1CCN(c2cnn3ccc(CN4CCN(CCC5CCOCC5)CC4)cc23)C(=O)N1` [Example 161], for which the DC50 worked out at 115 nM. Also, under setting [1], the Dmax at 25 µM was 80%. Besides, the remaining activity at 25 µM (HEK-293T, read-out: WIZ Amax) stood at 20%.

For the compound `O=C1CCN(c2cnn3ccc(CC4CCN(Cc5cccc(C(F)(F)F)c5)CC4)cc23)C(=O)N1` [Example 25, 1-(5-((1-(3-(trifluoromethyl)benzyl)piperidin-4-yl)methyl)pyrazolo[1,5-a]pyridin-3-yl)dihydropyrimidine-2,4(1H,3H)-dione], the DC50 was determined as 40 nM. Further, the Dmax at 25 µM under setting [1] worked out at 76%. For the same compound, the remaining activity at 25 µM (HEK-293T, read-out: WIZ Amax) amounted to 24%.

`O=C1CCN(c2cnn3ccc(CN4CCN(Cc5cccc(F)c5)CC4)cc23)C(=O)N1` [Example 170]: the DC50 was 228 nM. The Dmax at 25 µM under setting [1] stood at 53%. Besides, the remaining activity at 25 µM (HEK-293T, read-out: WIZ Amax) came to 47%.

Regarding `CC(C)CN1CC[C@@H](Cc2ccn3ncc(-n4cc(F)c(=O)[nH]c4=O)c3c2)C[C@@H]1C` [Example 349, 5-fluoro-1-(5-(((2S,4R)-1-isobutyl-2-methylpiperidin-4-yl)methyl)pyrazolo[1,5-a]pyridin-3-yl)pyrimidine-2,4(1H,3H)-dione], the DC50 was 118 nM. Besides, the Dmax at 25 µM under setting [1] amounted to 86%. For the same compound, the remaining activity at 25 µM (HEK-293T, read-out: WIZ Amax) was 14%.

In the case of `O=C1CCN(c2cnn3ccc(CC4CCN(CC56CC7CC(CC(C7)C5)C6)CC4)cc23)C(=O)N1` [Example 117], the DC50 is 1 nM. In addition, the Dmax at 25 µM under setting [1] came out at 90%. Further, the remaining activity at 25 µM (HEK-293T, read-out: WIZ Amax) came to 10%.

As to `Cc1c(CC2CCN(CC3CCCCC3)CC2)ccn2ncc(N3CCC(=O)NC3=O)c12` [Example 127, 1-(5-((1-(cyclohexylmethyl)piperidin-4-yl)methyl)-4-methylpyrazolo[1,5-a]pyridin-3-yl)dihydropyrimidine-2,4(1H,3H)-dione], the DC50 was 13 nM. Besides, under setting [1], the Dmax at 25 µM came to 69%. For the same compound, the remaining activity at 25 µM (HEK-293T, read-out: WIZ Amax) stood at 31%.

Take `O=C1CCN(c2cnn3ccc(CC4CCN(Cc5cncc(F)c5)CC4)cc23)C(=O)N1` [Example 33, 1-(5-((1-((5-fluoropyridin-3-yl)methyl)piperidin-4-yl)methyl)pyrazolo[1,5-a]pyridin-3-yl)dihydropyrimidine-2,4(1H,3H)-dione]: the DC50 was determined as 31 nM. Also, the Dmax at 25 µM under setting [1] came out at 73%. For the setting “HEK-293T, read-out: WIZ Amax”, the remaining activity at 25 µM came to 27%.

With `O=C1CCN(c2cnn3ccc(CN4CCN(CC5CCCC5)CC4)cc23)C(=O)N1` [Example 159], the DC50 was 23 nM. Besides, the Dmax at 25 µM under setting [1] was found to be 81%. Also, the remaining activity at 25 µM (HEK-293T, read-out: WIZ Amax) was found to be 19%.

As to `C[C@H]1CN(Cc2ccn3ncc(N4CCC(=O)NC4=O)c3c2)CCN1C[C@H]1CC[C@H](C(F)(F)F)CC1` [Example 323, 1-(5-(((S)-3-methyl-4-(((1r,4S)-4-(trifluoromethyl)cyclohexyl)methyl)piperazin-1-yl)methyl)pyrazolo[1,5-a]pyridin-3-yl)dihydropyrimidine-2,4(1H,3H)-dione], the DC50 came out at 4 nM. In addition, the Dmax at 25 µM under setting [1] stood at 83%. For the same compound, the remaining activity at 25 µM (HEK-293T, read-out: WIZ Amax) is 17%.

In the case of `C[C@H]1C[C@H](Cc2ccn3ncc(N4CCC(=O)NC4=O)c3c2)CCN1C1CCC1` [Example 280, 1-(5-(((2S,4R)-1-cyclobutyl-2-methylpiperidin-4-yl)methyl)pyrazolo[1,5-a]pyridin-3-yl)dihydropyrimidine-2,4(1H,3H)-dione], the DC50 turned out to be 8 nM. Under setting [1], the Dmax at 25 µM is 88%. Moreover, the remaining activity at 25 µM (HEK-293T, read-out: WIZ Amax) is 12%.
